Experiments:
[1] = 101.33 kPa, Liquid
[2] = excess molar enthalpy (molar enthalpy of mixing); xn = mol fraction of the nth substance listed; conditions: 308.15 K, 101 kPa, Liquid, Calvet calorimetry
[3] = xn = mol fraction of the nth substance listed; conditions: 308.15 K, 101 kPa, Liquid; for excess molar volume: Direct dilatometry; for speed of sound: Linear variable-path acoustic interferometer

O=C1CCCN1 [2-pyrrolidinone]
[1]
Conditions	mass density [kg/m3]	speed of sound [m/s]
298.15 K, Pycnometric method	1107.26	–
308.15 K, Linear variable-path acoustic interferometer	–	1603

O=C1CCCN1 [2-pyrrolidinone] + CC(C)O
Conditions	excess molar enthalpy [kcal/mol]	excess molar volume [m3/mol]	speed of sound [m/s]
[2], x1 = 0.0841	0.11	–	–
[2], x1 = 0.1776	0.187	–	–
[2], x1 = 0.2315	0.21	–	–
[2], x1 = 0.334	0.226	–	–
[2], x1 = 0.3758	0.227	–	–
[2], x1 = 0.4453	0.218	–	–
[2], x1 = 0.501	0.206	–	–
[2], x1 = 0.6009	0.175	–	–
[2], x1 = 0.6811	0.144	–	–
[2], x1 = 0.7151	0.129	–	–
[2], x1 = 0.7626	0.111	–	–
[2], x1 = 0.8338	0.0822	–	–
[2], x1 = 0.8794	0.0634	–	–
[2], x1 = 0.9223	0.0429	–	–
[3], x1 = 0.0825	–	-9.8e-08	–
[3], x1 = 0.0835	–	–	1144.9
[3], x1 = 0.1311	–	-1.54e-07	–
[3], x1 = 0.1329	–	–	1166.9
[3], x1 = 0.1719	–	-1.97e-07	–
[3], x1 = 0.1976	–	–	1196.8
[3], x1 = 0.2365	–	-2.59e-07	–
[3], x1 = 0.2597	–	–	1225.6
[3], x1 = 0.2949	–	-3.07e-07	–
[3], x1 = 0.3244	–	–	1256
[3], x1 = 0.348	–	-3.36e-07	–
[3], x1 = 0.3815	–	–	1283.5
[3], x1 = 0.4267	–	-3.69e-07	–
[3], x1 = 0.4394	–	–	1311.6
[3], x1 = 0.4756	–	-3.81e-07	–
[3], x1 = 0.5031	–	–	1343.3
[3], x1 = 0.5682	–	–	1376.4
[3], x1 = 0.5684	–	-3.74e-07	–
[3], x1 = 0.6159	–	–	1401.1
[3], x1 = 0.6315	–	-3.51e-07	–
[3], x1 = 0.6879	–	–	1439.2
[3], x1 = 0.6921	–	-3.17e-07	–
[3], x1 = 0.7193	–	-2.98e-07	–
[3], x1 = 0.765	–	–	1479.9
[3], x1 = 0.8048	–	-2.29e-07	–
[3], x1 = 0.8223	–	–	1511.6
[3], x1 = 0.8941	–	-1.33e-07	–
[3], x1 = 0.9042	–	–	1553.8

O=C1CCCN1 [2-pyrrolidinone] + CCCCO
Conditions	excess molar enthalpy [kcal/mol]	excess molar volume [m3/mol]	speed of sound [m/s]
[2], x1 = 0.0824	0.0833	–	–
[2], x1 = 0.1933	0.155	–	–
[2], x1 = 0.2472	0.174	–	–
[2], x1 = 0.3241	0.193	–	–
[2], x1 = 0.3748	0.195	–	–
[2], x1 = 0.4183	0.195	–	–
[2], x1 = 0.4734	0.191	–	–
[2], x1 = 0.5451	0.178	–	–
[2], x1 = 0.5725	0.17	–	–
[2], x1 = 0.6427	0.151	–	–
[2], x1 = 0.7058	0.127	–	–
[2], x1 = 0.7499	0.112	–	–
[2], x1 = 0.8571	0.0658	–	–
[2], x1 = 0.9247	0.0365	–	–
[3], x1 = 0.0632	–	–	1237.1
[3], x1 = 0.0883	–	-6.5e-08	–
[3], x1 = 0.1021	–	-7.6e-08	–
[3], x1 = 0.1176	–	–	1245.9
[3], x1 = 0.186	–	–	1262.9
[3], x1 = 0.2306	–	–	1276.6
[3], x1 = 0.2423	–	-1.47e-07	–
[3], x1 = 0.3298	–	-1.72e-07	–
[3], x1 = 0.3394	–	–	1315.9
[3], x1 = 0.3954	–	–	1338.2
[3], x1 = 0.4003	–	-1.87e-07	–
[3], x1 = 0.4442	–	–	1359
[3], x1 = 0.4536	–	-1.9e-07	–
[3], x1 = 0.4825	–	–	1374.9
[3], x1 = 0.497	–	-1.92e-07	–
[3], x1 = 0.5269	–	-1.88e-07	–
[3], x1 = 0.5453	–	–	1402
[3], x1 = 0.5702	–	–	1412.4
[3], x1 = 0.5855	–	-1.83e-07	–
[3], x1 = 0.6229	–	-1.76e-07	–
[3], x1 = 0.6427	–	–	1441.1
[3], x1 = 0.7154	–	-1.53e-07	–
[3], x1 = 0.7367	–	–	1478
[3], x1 = 0.7617	–	-1.36e-07	–
[3], x1 = 0.8275	–	–	1512.6
[3], x1 = 0.8382	–	-1.02e-07	–
[3], x1 = 0.8826	–	-7.7e-08	–
[3], x1 = 0.9152	–	–	1551

— the NIST ThermoML archive (doi:10.1016/j.tca.2009.03.014)
